The experiment concerns the target T1, SLC26A9 (Homo sapiens, UniProt Q7LBE3).
T1 construct: expressed in transfected cells; host or cells: FRT cells coexpressing YFP
T1 sequence (Q7LBE3 1-791): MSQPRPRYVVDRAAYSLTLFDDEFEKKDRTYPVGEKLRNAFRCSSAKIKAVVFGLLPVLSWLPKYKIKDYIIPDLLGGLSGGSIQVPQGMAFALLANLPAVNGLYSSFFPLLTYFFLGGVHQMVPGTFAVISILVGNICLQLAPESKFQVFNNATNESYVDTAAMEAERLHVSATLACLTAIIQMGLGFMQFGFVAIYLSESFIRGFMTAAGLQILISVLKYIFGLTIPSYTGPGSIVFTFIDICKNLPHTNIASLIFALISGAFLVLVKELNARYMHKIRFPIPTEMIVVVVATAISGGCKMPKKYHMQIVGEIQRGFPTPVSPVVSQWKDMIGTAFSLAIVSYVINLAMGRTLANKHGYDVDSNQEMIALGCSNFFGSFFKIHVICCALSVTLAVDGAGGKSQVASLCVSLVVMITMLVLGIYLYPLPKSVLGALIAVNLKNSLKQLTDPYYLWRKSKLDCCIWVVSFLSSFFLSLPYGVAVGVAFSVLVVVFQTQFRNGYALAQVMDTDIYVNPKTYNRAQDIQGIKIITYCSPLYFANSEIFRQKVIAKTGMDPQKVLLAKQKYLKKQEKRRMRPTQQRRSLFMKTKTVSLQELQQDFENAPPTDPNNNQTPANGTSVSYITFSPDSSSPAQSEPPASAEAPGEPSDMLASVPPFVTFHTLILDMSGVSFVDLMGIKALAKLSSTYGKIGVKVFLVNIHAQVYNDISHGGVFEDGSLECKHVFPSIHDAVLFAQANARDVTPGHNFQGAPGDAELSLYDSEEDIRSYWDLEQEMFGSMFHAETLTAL
The experiment can be described thus: Selectivity: Cl-/I- exchange in FRT cells coexpressing YFP and SLC26A9. The following applies: 25 μM. The experiment is classed as cell-based. On the procedure:
PAT1inh-B01 selectivity was studied by testing its effects on related SLC26A family anion transporters and the Cl^– channel TMEM16A. These measurements used a similar Cl^–/I^– exchange protocol, but FRT cells separately expressed each of the SLC26A family members or TMEM16A. […] PAT1inh-B01 selectivity was also tested by short-circuit current (Isc) in well-differentiated human bronchial epithelial (HBE) cells, which have a complex ion transport mechanism that includes cystic fibrosis transmembrane conductance regulator (CFTR), epithelial Na^+ channel (ENaC), and Ca^+2-activated chloride channels (CaCCs) ([13]). […] Potential PAT1inh-B01 cytotoxicity was studied in FRT cells.
Figure 3 PAT1inh-B01 selectivity and cytotoxicity. […] Cl^–/I^– exchange or I^– influx measured in FRT cells coexpressing YFP and SLC26A isoforms or TMEM16A, with data shown for 25 μM PAT1inh-B01, DMSO vehicle control, and 500 μM niflumic acid (positive control for SLC26A transporters) or 10 μM TMinh-23 (positive control for TMEM16A). […] (C) (left) Short-circuit current (Isc) in well-differentiated HBE cells measured in the absence (top) and presence (bottom) of 25 μM PAT1inh-B01. […]
YFP-based cellular assays of slc26a3, slc26a4, SLC26A9, and TMEM16A function were performed as described previously ([7]). […] The activities of ENaC, CFTR, and CaCC were determined using well-differentiated HBE cells as described previously ([13]). […]

With `Cc1c(Br)c(C(F)(F)F)nn1CC(=O)N1CCc2nc3cc(-c4ccccc4)[nH]n3c(=O)c2C1` [PAT1inh-B01], the “inhibition of SLC26A9” value is given as “did not significantly inhibit”.

Source of the values: PMC8262356, “SLC26A6-selective inhibitor identified in a small-molecule screen blocks fluid absorption in small intestine” (JCI Insight, 2021).
